According to PMC6910946, “Multiple roles of Bet v 1 ligands in allergen stabilization and modulation of endosomal protease activity” (Allergy, 2019):

Legend:
[1] = target: T1, Bet_v_1 (Betula pendula, UniProt P15494); test: Thermal stability of Bet v 1 by FTIR spectroscopy; format: physicochemical, Betula verrucosa; details: for ΔFTIR: change of Tm of Bet v 1 versus no ligand; for T m FTIR: melting point of Bet v 1 with or without ligand
T1 construct: made in house
T1 sequence (P15494 1-160): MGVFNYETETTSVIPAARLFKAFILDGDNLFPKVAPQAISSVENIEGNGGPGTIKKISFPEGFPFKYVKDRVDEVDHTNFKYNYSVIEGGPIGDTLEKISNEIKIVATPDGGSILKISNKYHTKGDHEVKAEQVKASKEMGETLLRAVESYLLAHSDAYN
Source text: Surface acoustic wave (SAW) technology and NMR spectroscopy were used to observe the interaction of Bet_v_1 with the selected compounds, including determination of the dissociation constant (K d). The influence of ligand binding on the secondary structure elements and the thermal stability of Bet_v_1 was monitored using circular dichroism (CD, JASCO J‐815 spectropolarimeter, Jasco) and Fourier transform infrared (FTIR) spectroscopy (Tensor II FTIR system, Bruker Optics Inc). A detailed description of these methods is available (Appendix [Link], [Link]). […]
Determination of secondary structure elements and thermal stability
The influence of ligand binding on the secondary structure elements and the thermal stability of Bet v 1 was addressed by circular dichroism (CD) and Fourier transform infrared (FTIR) spectroscopy. CD spectroscopy was performed with a JASCO J-815 spectropolarimeter fitted with a PTC-423S Peltier-type single position cell holder (Jasco, Tokyo, Japan) over the wavelength range 190 to 260 nm. For measurement, Bet v 1 with and without ligand was diluted in a 10 mM potassium phosphate buffer to a concentration of 0.1 mg/ml. The thermal stability analysis was recorded at 222 nm. The protein was denatured with a temperature slope of 1° C/min from 20 to 95° C.
FTIR amide 1 and amide 2 spectra of Bet v 1 at concentrations of 1.0-2.0 mg/ml with and without ligand were recorded with an AquaSpec transmission cell adapted to a Tensor II FTIR system (Bruker Optics Inc., Billerica, MA, USA). Measurement was performed at a constant temperature (25° C), controlled by a Haake F8 thermostat (Thermo Electron, Germany) with internal temperature control. For data analysis, OPUS spectroscopy software 6.0 (Bruker Optics Inc., Billerica, MA, USA) was used. The Savitzky-Golay algorithm was applied on […]
vector-normalized amide 1 spectra (25 smoothing points) to obtain the second derivative. For the quantification of secondary structure elements, a Quant2 method of the OPUS software was used. For thermal stability analysis, spectra were recorded with a BioATR II unit (Bruker Optics Inc., Billerica, MA, USA) at 25 to 95° C (dT=2.5K). The determined relative signal change in the amide I band by creating a difference spectrum for each temperature point was used to calculate the melting point (Tm). […]

[2] = system: CD11c+ murine bone marrow–derived dendritic cells (BMDCs); test: In vitro antigen uptake of labeled Bet v 1 by BMDCs; format: cell-based, mouse; details: Bet v 1 with or without ligand; 1, 6, 24 h; FACS
Experimental: (§1) The ability of ligand‐loaded Bet_v_1 to induce IgE‐antigen cross‐linking and basophil degranulation was assessed by mediator‐release assays using rat basophil (RBL‐2H3) cells, transfected with the human high‐affinity IgE receptor (FcεRI), as previously described.2, 24 In vitro uptake of labeled Bet_v_1 was performed using CD11c^+ murine bone marrow–derived dendritic cells (BMDCs). The maturation of human monocyte‐derived dendritic cells (moDCs) was analyzed as previously described.2 T‐cell proliferation assays using CD4^+ T‐cell hybridomas were performed as previously described.17 A detailed description of the in vitro assays is available (Appendix [Link], [Link]).
BMDCs from C57BL/6 mouse bone marrow were isolated as described previously.^5 cultured in BMDC medium (RPMI 1640, 5% fetal calf serum, 2 mM L-glutamine, 1% penicillin-streptomycin, 20% granulocyte-macrophage colony-stimulating factor supernatant and 200 µM β-mercaptoethanol) (BMDC medium) for 10 days, and stored frozen in liquid nitrogen. BMDCs were treated over a certain period of time (24, 6 or 1 hours) with 0.5 µg of Bet v 1 per 2x10^5 cells. Bet v 1 was labeled with pHrodo™ Red succinimidyl ester (Thermo Fisher Scientific, Waltham, MA, USA) and pre-incubated with one of the ligands (DOC, Q3OS or PPE1). CD11c^+ cells were analyzed via flow cytometry (allophycocyanin-conjugated anti-mouse CD11c antibody, clone N418; eBioscience, Inc., San Diego, CA, USA) on a FACSCanto II instrument (BD Biosciences, San Jose, CA, USA). For the live/dead staining a fixable viability stain 450 (BD Biosciences) was used. Granulocytes and monocytes were excluded via the V450 Rat anti-Mouse LY-6G and LY-6C (BD Biosciences) antibody. Data were recorded and analyzed using the BD FACSDiva software (BD Biosciences). Statistical analysis was performed using ANOVA with a Bonferroni post-test to compare all groups. The data represent the mean of duplicate experiments and are derived from at least 2 independent experiments.

[3] = system: human monocyte‐derived dendritic cells (moDCs); test: Activation and cytokine secretion of human moDCs; format: cell-based; details: Bet v 1 in complex with ligand, 24 h, no LPS co-stimulation
Experimental: as §1
Immature moDCs from PBMCs of either healthy/non-atopic donors (n=5) or atopic patients (n=7) were isolated and cultured as described elsewhere.^6 Cell viability using the Aqua® dye (Invitrogen, Carlsbad, CA, USA), expression of CD1a (eBioscience, Inc., San Diego, CA, USA) and loss of CD14 (BD Biosciences) expression were analyzed by flow cytometry on a Navios flow cytometer (Beckman Coulter, Brea, CA, USA). Cells (1x10^6 cells/ml) were stimulated for 24 hours with 1 µg/ml of Bet v 1 either alone or in complex with one of the three ligands (DOC, PPE1 or Q3OS). As a control, unstimulated moDCs and the individual ligands without Bet v 1 were used at the same concentrations. The cell supernatant was frozen for the analysis of cytokine secretion. Of note, no LPS co-stimulation was induced. The following maturation markers were investigated: CD40 (eBioscience), HLA-DR, CD80, CD83 and CD86 (BD Biosciences). Cytokine expression of CCL17, IL-1β, IL-10 (BD Biosciences), TNFα and IL-6 (eBioscience) was determined by ELISA. Statistical analysis was performed using one-way ANOVA with a Bonferroni post-test to compare all groups. The study was approved by the ethics committee of the medical faculty of Technical University of Munich (54/17 S).

SMILES | ΔFTIR [1] | T m FTIR [1] | antigen uptake of pHrodo Red‐labeled Bet v 1 [2] | maturation marker expression and Th polarization‐associated cytokines [3]
C[C@H](CCC(=O)O)[C@H]1CC[C@H]2[C@@H]3CC[C@@H]4C[C@H](O)CC[C@]4(C)[C@H]3C[C@H](O)[C@]12C [DOC, sodium deoxycholate, reference compound] | +3.22 °C | 66.6 °C | None of the above described readouts was influenced | None of the above described readouts was influenced
CCC1C(=O)CC(O)C1/C=C/C(O)CCCCCCCC(=O)O (stereo not drawn) [PPE1, E1 phytoprostanes] | +5.93 °C | 69.31 °C | None of the above described readouts was influenced | None of the above described readouts was influenced
O=c1c(O[C@@H]2O[C@H](CO)[C@@H](O)[C@H](O)[C@H]2O[C@@H]2O[C@H](CO)[C@@H](O)[C@H](O)[C@H]2O)c(-c2ccc(O)c(O)c2)oc2cc(O)cc(O)c12 [Q3OS, quercetin 3‐O‐sophoroside] | +1.88 °C | 65.26 °C | None of the above described readouts was influenced | None of the above described readouts was influenced
